Counter-ions that a name gives are not always drawn.
Test: Octanol/water partition coefficient (O/W coefficient) of the second component
Details: 1-octanol/water 1/1 by mass; value of the second component species
Description: In this context, the octanol/water partition coefficient is a value calculated through the following.
A sample is dissolved in a mixture of octanol and water in a ratio by mass of 1/1, and the concentration of the substance in the octanol (Co) and the concentration of the substance in the water (Cw) are measured; then the octanol/water partition coefficient (O/W coefficient) is calculated according to equation (1) below.
O/W coefficient=Log(Co/Cw) (1)
The concentration of the substance in the octanol (Co) and the concentration of the substance in the water (Cw) are measured as follows.
The OECD test guideline is followed. More specifically, a sample is dissolved in a mixture of 1-octanol and water in a ratio by mass of 1/1, and the resulting solution is centrifuged until it completely separates into two layers. From the 1-octanol layer, an appropriate amount of octanol solution is pipetted. The tip of a syringe, into which air has been drawn in advance, is inserted into the water layer through the 1-octanol layer while the air is ejected, and the aqueous solution is sampled quickly.
For each solution, the test concentration is determined using an ion chromatograph (Metrohm, 930 Compact IC).

SMILES	Second component Octanol/water partition coefficient
CCCCCCCCCCCC(=O)NCC(C)O (stereo not shown) [Add22, lauric acid monoisopropanolamide]	4
CCCCCCCC/C=C\CCCCCCCC(=O)N(CCO)CCO [Add1, oleic acid diethanolamide]	6
CCCCCCCCCCCCCCCCCC(=O)N(CCO)CCO [Add21, stearic acid diethanolamide]	11
CCCCCCC(CCCC)(CCCC)Cc1ccc(O)cc1 [Add33, 4-2,2-dibutyl-octylphenol]	21

Same assay, conditions: 1-octanol/water (1/1 by mass)

logP	SMILES
4	CC(C)COC(=O)CCCCC(=O)OCC(C)C [Add11, diisobutyl adipate, reference compound]
0.9	CCOC(=O)CC(O)(CC(=O)OCC)C(=O)OCC [Add10, triethyl citrate, reference compound]

SMILES	logP
CCCCCCCCCCCCc1ccc(O)cc1 [Add32, 4-dodecylphenol]	5
